According to patent US11697648B2, “Fused pyrimidine pyridinone compounds as JAK inhibitors” (THERAVANCE BIOPHARMA R&D IP, LLC, priority 2019, dated 2023):

Columns and labels:
[1] = target: JAK1 (Homo sapiens (Human), UniProt P23458); test: Biochemical JAK1 kinase assay (LanthaScreen)
Summary of the method: (§1)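 GST-JAK + GFP-STAT1 peptide, HEPES pH 7.5/MgCl2/EGTA/Brij-35 buffer; cpd preincubation 1 h RT; ATP start, 1 h RT; stop with 10 mM EDTA + 2 nM Tb-anti-pSTAT1; TR-FRET 520/495. 4-parameter IC50 → pKi (Cheng-Prusoff).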

[2] = target: JAK2 (Homo sapiens (Human), UniProt O60674); test: Biochemical JAK2 kinase assay (LanthaScreen)
Summary of the method: as §1

[3] = target: JAK3 (Homo sapiens (Human), UniProt P52333); test: Biochemical JAK3 kinase assay (LanthaScreen); conditions: for JAK3 (pKi)-JAK1 (pKi): selectivity JAK3 over JAK1, difference of pKi
Summary of the method: as §1

[4] = target: Tyk2 (Homo sapiens (Human), UniProt P29597); test: Biochemical Tyk2 kinase assay (LanthaScreen)
Summary of the method: as §1

[5] = tested on: IL-2 stimulated STAT5 phosphorylation in Tall-1 human T cell line (JAK3); test: Cellular JAK3 potency assay: inhibition of IL-2 stimulated pSTAT5 in Tall-1 T cells; assay type: cell-based; conditions: IL-2 stimulated pSTAT5, Tall-1 T cells
Summary of the method: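 AlphaLISA SureFire Ultra measures STAT5 Tyr694/699 phosphorylation in lysed Tall-1 human T cells. Cells were exposed to compound for 1 h at 37 °C before a 30 min IL-2 challenge (300 ng/ml final). Values are pIC50 means with standard deviation from signal-versus-concentration curves.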

[6] = tested on: Caco-2 cell monolayers; test: Caco-2 permeation assay; assay type: in vitro ADME; conditions: 5 μM, A-B direction, with Verapamil (25 μM)
Summary of the method: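 Passive A-to-B permeability with P-gp inhibited by verapamil (25 μM); compound at 5 μM, n=2. Both compartments sampled at t0 and t120 and quantified by LC-MS/MS, giving apparent permeability in cm/sec from flux, area and concentration.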

[7] = Colon and plasma mouse pharmacokinetics; assay type: in vivo; conditions: mouse, colon tissue / plasma; male Balb/c mice, 10 mg/kg PO; ratio of the colon AUC to the plasma AUC
Procedure: Assay 5: Colon and Plasma Mouse Pharmacokinetics
To 6 male Balb/c mice was administered 10 mg/kg of compound in 1% HPMC+0.1% Tween-80 by PO administration. At 0.5, 2 and 6 hours after dose administration, animals were anesthetized, and terminal blood samples were collected by cardiac puncture, followed by collection of colon contents and colon tissue.
Blood samples were collected into K2EDTA and stored on wet ice until processed to plasma by centrifugation (12000 rpm at 4° C.). Plasma samples were transferred to cluster tubes and placed on dry ice prior to freezer storage. The colon contents from each animal were collected at each terminal blood collection time point. The colon tissues were flushed with saline and patted dry. The colon and colon content tissues were homogenized using sterile water containing 0.1% formic acid 9:1 (water:tissue, v/w). The homogenized tissues and colon contents were transferred to cluster tubes and placed on dry ice prior to freezer storage. All samples were analyzed using LC/MS/MS against analytical standards.
The composite pharmacokinetic parameters of the compounds were determined by non-compartmental analysis using Phoenix WinNonlin Version 6 (Certara, St. Louis, Mo.) and using mean values from 2 animals/time point. For plasma concentrations below the quantification limit (BQL), the lowest concentration measurable or the BLOQ (below limit of quantification) was used.
A colon to plasma ratio was determined as the ratio of the colon AUC to the plasma AUC.

Chain of Tyk2 (P29597 whole entry): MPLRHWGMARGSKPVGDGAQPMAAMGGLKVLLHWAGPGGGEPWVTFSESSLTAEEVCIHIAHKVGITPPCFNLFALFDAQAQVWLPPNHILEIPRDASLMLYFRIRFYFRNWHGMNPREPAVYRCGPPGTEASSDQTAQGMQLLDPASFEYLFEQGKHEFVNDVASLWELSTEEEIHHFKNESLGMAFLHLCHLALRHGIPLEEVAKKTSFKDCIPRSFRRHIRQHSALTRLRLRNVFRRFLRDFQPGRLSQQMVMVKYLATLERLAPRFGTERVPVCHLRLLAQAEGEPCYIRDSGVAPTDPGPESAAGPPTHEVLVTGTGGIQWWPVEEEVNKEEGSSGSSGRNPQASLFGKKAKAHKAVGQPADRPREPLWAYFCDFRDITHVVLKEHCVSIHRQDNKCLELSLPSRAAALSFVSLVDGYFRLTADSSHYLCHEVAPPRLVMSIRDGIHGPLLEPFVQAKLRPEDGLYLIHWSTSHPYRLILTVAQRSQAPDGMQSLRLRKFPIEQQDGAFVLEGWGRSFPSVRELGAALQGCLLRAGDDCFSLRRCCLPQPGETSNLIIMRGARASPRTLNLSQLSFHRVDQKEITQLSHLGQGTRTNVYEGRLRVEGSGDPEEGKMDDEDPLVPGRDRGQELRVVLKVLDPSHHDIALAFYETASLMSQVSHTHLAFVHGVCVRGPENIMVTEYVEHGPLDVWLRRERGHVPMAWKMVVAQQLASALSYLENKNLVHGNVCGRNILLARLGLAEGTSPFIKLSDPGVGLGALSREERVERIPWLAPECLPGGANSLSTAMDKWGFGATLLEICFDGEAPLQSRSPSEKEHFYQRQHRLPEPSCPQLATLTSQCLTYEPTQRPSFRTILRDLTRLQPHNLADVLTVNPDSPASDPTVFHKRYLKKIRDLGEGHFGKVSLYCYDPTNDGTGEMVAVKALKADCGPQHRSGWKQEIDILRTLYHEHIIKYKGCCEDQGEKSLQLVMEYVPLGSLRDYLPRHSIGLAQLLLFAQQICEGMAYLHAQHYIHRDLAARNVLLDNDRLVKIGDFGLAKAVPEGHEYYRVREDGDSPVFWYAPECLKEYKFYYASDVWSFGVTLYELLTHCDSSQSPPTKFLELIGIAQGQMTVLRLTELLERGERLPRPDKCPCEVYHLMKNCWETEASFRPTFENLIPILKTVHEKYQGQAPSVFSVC
Chain of JAK1 (P23458 whole entry): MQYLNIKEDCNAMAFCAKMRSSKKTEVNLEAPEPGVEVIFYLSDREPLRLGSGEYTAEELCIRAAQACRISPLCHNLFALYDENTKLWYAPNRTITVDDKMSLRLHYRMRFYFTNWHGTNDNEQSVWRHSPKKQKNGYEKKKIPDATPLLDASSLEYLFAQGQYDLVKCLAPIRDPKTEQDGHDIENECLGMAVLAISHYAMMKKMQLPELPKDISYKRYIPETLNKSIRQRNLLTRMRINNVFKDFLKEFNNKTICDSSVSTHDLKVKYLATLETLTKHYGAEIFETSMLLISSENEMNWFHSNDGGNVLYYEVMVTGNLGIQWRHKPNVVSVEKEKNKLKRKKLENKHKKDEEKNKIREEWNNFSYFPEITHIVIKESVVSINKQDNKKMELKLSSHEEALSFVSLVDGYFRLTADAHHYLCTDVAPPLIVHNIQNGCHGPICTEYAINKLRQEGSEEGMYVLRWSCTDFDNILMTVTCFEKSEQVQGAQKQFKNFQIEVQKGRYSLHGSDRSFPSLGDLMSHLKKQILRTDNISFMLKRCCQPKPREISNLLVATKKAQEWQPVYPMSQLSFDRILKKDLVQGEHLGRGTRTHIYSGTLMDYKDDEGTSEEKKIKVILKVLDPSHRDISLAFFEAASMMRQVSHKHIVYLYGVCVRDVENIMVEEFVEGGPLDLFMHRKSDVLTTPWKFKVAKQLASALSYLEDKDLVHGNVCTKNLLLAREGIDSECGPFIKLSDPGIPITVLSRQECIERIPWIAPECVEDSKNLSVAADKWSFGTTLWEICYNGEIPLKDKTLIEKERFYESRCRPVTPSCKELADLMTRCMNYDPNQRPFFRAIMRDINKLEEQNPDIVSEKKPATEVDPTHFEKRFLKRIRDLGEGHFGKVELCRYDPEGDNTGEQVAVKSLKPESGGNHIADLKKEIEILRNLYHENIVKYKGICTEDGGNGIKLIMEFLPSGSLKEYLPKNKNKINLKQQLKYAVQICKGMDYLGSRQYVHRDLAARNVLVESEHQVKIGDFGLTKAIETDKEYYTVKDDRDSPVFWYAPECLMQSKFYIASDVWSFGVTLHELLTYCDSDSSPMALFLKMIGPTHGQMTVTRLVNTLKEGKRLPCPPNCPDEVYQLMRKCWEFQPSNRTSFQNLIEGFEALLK
Chain of JAK3 (P52333 whole entry): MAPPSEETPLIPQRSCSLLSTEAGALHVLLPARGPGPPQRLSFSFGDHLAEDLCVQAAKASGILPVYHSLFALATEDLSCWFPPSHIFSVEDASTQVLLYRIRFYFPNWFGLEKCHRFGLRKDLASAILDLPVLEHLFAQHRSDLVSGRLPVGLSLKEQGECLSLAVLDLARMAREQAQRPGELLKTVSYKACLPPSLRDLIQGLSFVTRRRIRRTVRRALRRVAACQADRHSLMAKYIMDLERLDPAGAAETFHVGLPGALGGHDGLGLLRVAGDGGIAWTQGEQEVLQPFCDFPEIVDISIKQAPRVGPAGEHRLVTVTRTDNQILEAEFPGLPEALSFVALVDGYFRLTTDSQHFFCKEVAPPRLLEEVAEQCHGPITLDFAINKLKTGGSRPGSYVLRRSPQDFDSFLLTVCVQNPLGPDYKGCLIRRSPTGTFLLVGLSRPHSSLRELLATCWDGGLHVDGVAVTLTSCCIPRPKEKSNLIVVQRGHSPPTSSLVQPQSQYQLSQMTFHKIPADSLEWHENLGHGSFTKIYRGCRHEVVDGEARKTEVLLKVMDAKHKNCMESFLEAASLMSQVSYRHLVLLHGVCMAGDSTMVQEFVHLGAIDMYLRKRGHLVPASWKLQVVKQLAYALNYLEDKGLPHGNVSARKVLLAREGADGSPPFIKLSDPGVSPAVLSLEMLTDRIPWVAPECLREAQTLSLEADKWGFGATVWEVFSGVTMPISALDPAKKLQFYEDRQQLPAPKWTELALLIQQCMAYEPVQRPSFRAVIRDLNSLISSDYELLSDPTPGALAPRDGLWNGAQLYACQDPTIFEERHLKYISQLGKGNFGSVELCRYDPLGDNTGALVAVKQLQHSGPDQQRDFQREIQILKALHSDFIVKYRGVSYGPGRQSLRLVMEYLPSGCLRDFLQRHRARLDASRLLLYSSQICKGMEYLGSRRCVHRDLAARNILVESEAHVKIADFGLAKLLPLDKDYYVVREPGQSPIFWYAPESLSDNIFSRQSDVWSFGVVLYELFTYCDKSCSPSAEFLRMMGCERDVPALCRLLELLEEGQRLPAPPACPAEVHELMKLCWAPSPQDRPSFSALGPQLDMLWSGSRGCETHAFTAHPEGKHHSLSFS
Chain of JAK2 (O60674 whole entry): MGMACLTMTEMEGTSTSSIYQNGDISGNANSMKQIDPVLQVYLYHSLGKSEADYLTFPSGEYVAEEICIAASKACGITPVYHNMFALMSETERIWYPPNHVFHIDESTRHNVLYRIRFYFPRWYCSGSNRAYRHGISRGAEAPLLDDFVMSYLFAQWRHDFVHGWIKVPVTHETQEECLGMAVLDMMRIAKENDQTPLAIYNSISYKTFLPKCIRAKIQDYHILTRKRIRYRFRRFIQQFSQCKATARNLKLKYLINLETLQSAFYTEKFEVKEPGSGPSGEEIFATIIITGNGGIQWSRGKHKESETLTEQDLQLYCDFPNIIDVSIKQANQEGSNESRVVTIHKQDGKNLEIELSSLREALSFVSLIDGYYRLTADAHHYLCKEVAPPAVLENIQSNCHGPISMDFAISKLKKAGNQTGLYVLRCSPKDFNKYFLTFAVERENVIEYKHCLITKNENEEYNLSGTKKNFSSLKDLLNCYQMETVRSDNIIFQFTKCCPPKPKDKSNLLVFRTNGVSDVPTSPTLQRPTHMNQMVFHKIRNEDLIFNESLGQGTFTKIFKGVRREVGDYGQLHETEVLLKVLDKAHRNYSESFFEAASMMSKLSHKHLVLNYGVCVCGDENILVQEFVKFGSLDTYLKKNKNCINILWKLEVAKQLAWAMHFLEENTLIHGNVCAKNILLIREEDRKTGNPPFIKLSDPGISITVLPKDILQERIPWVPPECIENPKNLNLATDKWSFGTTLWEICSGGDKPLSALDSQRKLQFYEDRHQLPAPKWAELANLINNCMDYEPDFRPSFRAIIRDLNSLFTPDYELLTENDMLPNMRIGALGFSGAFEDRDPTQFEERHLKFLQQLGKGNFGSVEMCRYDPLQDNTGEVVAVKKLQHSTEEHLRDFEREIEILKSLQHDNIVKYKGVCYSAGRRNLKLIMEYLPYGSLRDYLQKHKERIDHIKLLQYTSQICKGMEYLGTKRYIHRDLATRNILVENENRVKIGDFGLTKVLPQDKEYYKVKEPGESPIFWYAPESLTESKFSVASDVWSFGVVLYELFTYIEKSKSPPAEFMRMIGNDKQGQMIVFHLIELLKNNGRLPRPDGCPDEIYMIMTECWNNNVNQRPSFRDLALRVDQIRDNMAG

Structure (SMILES)	JAK 1 (pKi) [1]	JAK 2 (pKi) [2]	JAK 3 (pKi) [3]	JAK3 (pKi)-JAK1 (pKi) [3]	Tyk 2 (pKi) [4]	Tall-1 (pIC50) [5]	Caco Kp [6]	Kp [7]
C=CC(=O)N1CC(CCn2c(=O)ccc3cnc(Nc4cccc(CN5CCN(S(C)(=O)=O)CC5)c4)nc32)C1 [Example 6, 8-(2-(1-acryloylazetidin-3-yl)ethyl)-2-((3-((4-(methylsulfonyl)piperazin-1-yl)methyl)phenyl)amino)pyrido[2,3-d]pyrimidin-7(8H)-one]	E (E represents a pKi value of 7 or below (Ki of 100 nM or above))	E (E represents a pKi value of 7 or below (Ki of 100 nM or above))	B (B represents pKi value between 9 and 10 (Ki between 1 nM and 0.1 nM))	A (A represents a value of 3 or above)	E (E represents a pKi value of 7 or below (Ki of 100 nM or above))	B (B represents a pC50 value between 6.7 (included) and 7.5 (IC50 between 200 nM and 32 nM))	A (A represents a value below 5×10^−6 cm/sec)	> 100
C=CC(=O)N1CC(CCn2c(=O)ccc3cnc(Nc4ccc(N5CCN(C)CC5)nc4)nc32)C1 [Example 8, 8-(2-(1-acryloylazetidin-3-yl)ethyl)-2-((6-(4-methylpiperazin-1-yl)pyridin-3-yl)amino)pyrido[2,3-d]pyrimidin-7(8H)-one]	E (E represents a pKi value of 7 or below (Ki of 100 nM or above))	E (E represents a pKi value of 7 or below (Ki of 100 nM or above))	B (B represents pKi value between 9 and 10 (Ki between 1 nM and 0.1 nM))	A (A represents a value of 3 or above)	E (E represents a pKi value of 7 or below (Ki of 100 nM or above))	B (B represents a pC50 value between 6.7 (included) and 7.5 (IC50 between 200 nM and 32 nM))	A (A represents a value below 5×10^−6 cm/sec)	> 100
C=CC(=O)N1CC(CCn2c(=O)ccc3cnc(Nc4cnn(C)c4)nc32)C1 [Example 15]	E (E represents a pKi value of 7 or below (Ki of 100 nM or above))	E (E represents a pKi value of 7 or below (Ki of 100 nM or above))	B (B represents pKi value between 9 and 10 (Ki between 1 nM and 0.1 nM))	A (A represents a value of 3 or above)	E (E represents a pKi value of 7 or below (Ki of 100 nM or above))	B (B represents a pC50 value between 6.7 (included) and 7.5 (IC50 between 200 nM and 32 nM))	B (B represents a value between 5×10^−6 and 10×10^−6 cm/sec)	> 100
C=CC(=O)N1CC(CCn2c(=O)ccc3cnc(Nc4cnn(CCOC(C)C)c4)nc32)C1 [Example 24]	E (E represents a pKi value of 7 or below (Ki of 100 nM or above))	E (E represents a pKi value of 7 or below (Ki of 100 nM or above))	B (B represents pKi value between 9 and 10 (Ki between 1 nM and 0.1 nM))	A (A represents a value of 3 or above)	E (E represents a pKi value of 7 or below (Ki of 100 nM or above))	B (B represents a pC50 value between 6.7 (included) and 7.5 (IC50 between 200 nM and 32 nM))	B (B represents a value between 5×10^−6 and 10×10^−6 cm/sec)	> 100
C=CC(=O)N1CC(CCn2c(=O)ccc3cnc(Nc4ccc(N5CCSCC5)cc4)nc32)C1 [Example 26]	E (E represents a pKi value of 7 or below (Ki of 100 nM or above))	E (E represents a pKi value of 7 or below (Ki of 100 nM or above))	B (B represents pKi value between 9 and 10 (Ki between 1 nM and 0.1 nM))	A (A represents a value of 3 or above)	E (E represents a pKi value of 7 or below (Ki of 100 nM or above))	B (B represents a pC50 value between 6.7 (included) and 7.5 (IC50 between 200 nM and 32 nM))	C (C represents a value between 10×10^−6 and 30×10^−6 cm/sec)	> 1000
C=CC(=O)N1CC(CCn2c(=O)ccc3cnc(Nc4cccc(CN5CCOCC5)c4)nc32)C1 [Example 27]	E (E represents a pKi value of 7 or below (Ki of 100 nM or above))	E (E represents a pKi value of 7 or below (Ki of 100 nM or above))	B (B represents pKi value between 9 and 10 (Ki between 1 nM and 0.1 nM))	A (A represents a value of 3 or above)	E (E represents a pKi value of 7 or below (Ki of 100 nM or above))	B (B represents a pC50 value between 6.7 (included) and 7.5 (IC50 between 200 nM and 32 nM))	C (C represents a value between 10×10^−6 and 30×10^−6 cm/sec)	> 100
C=CC(=O)N1CC(CCn2c(=O)ccc3cnc(Nc4cccc(N5CCN(C)CC5)c4)nc32)C1 [Example 31]	E (E represents a pKi value of 7 or below (Ki of 100 nM or above))	E (E represents a pKi value of 7 or below (Ki of 100 nM or above))	B (B represents pKi value between 9 and 10 (Ki between 1 nM and 0.1 nM))	A (A represents a value of 3 or above)	E (E represents a pKi value of 7 or below (Ki of 100 nM or above))	B (B represents a pC50 value between 6.7 (included) and 7.5 (IC50 between 200 nM and 32 nM))	A (A represents a value below 5×10^−6 cm/sec)	> 50
C=CC(=O)N1CCN(CCn2c(=O)ccc3cnc(Nc4ccc(N5CCSCC5)cc4)nc32)CC1 [Example 38]	E (E represents a pKi value of 7 or below (Ki of 100 nM or above))	E (E represents a pKi value of 7 or below (Ki of 100 nM or above))	B (B represents pKi value between 9 and 10 (Ki between 1 nM and 0.1 nM))	A (A represents a value of 3 or above)	E (E represents a pKi value of 7 or below (Ki of 100 nM or above))	B (B represents a pC50 value between 6.7 (included) and 7.5 (IC50 between 200 nM and 32 nM))	C (C represents a value between 10×10^−6 and 30×10^−6 cm/sec)	> 1000
C=CC(=O)N1CC(CCn2c(=O)ccc3cnc(Nc4cccc(CN5CCN(C)CC5)c4)nc32)C1 [Example 52]	E (E represents a pKi value of 7 or below (Ki of 100 nM or above))	E (E represents a pKi value of 7 or below (Ki of 100 nM or above))	B (B represents pKi value between 9 and 10 (Ki between 1 nM and 0.1 nM))	A (A represents a value of 3 or above)	E (E represents a pKi value of 7 or below (Ki of 100 nM or above))	B (B represents a pC50 value between 6.7 (included) and 7.5 (IC50 between 200 nM and 32 nM))	A (A represents a value below 5×10^−6 cm/sec)	> 100
C=CC(=O)N1CC(CCn2c(=O)ccc3cnc(Nc4ccc(C5=CCN(C)CC5)cc4)nc32)C1 [Example 74]	E (E represents a pKi value of 7 or below (Ki of 100 nM or above))	E (E represents a pKi value of 7 or below (Ki of 100 nM or above))	B (B represents pKi value between 9 and 10 (Ki between 1 nM and 0.1 nM))	A (A represents a value of 3 or above)	E (E represents a pKi value of 7 or below (Ki of 100 nM or above))	B (B represents a pC50 value between 6.7 (included) and 7.5 (IC50 between 200 nM and 32 nM))	A (A represents a value below 5×10^−6 cm/sec)	> 100
